Values of other authors, collected in the CATMoS acute toxicity set (Mansouri et al. 2021).

test: rat acute oral toxicity; settings: in vivo
Source text: […]The data set underlying the modeling effort for this project was initially compiled by NICEATM and U.S. EPA’s CCTE. Briefly, LD50 data were collected from rat acute oral systemic toxicity tests, including limit tests, ranges/confidence intervals, and discrete LD50 values. The full data set included 21,200 LD50 entries for 15,688 substances. […] Data were reviewed to ensure that LD50 values with obvious errors in the extracted data such as unit conversion errors (e.g., comma and decimal separator misplacements) were either fixed or removed. After this review, 16,209 LD50 values remained. Many of the chemicals represented had multiple LD50 entries, requiring that a single representative value per Chemical Abstracts Service Registry Number (CASRN) identifier be defined to facilitate modeling efforts. Based on ATWG feedback and to define the representative LD50 as a protective value while accounting for the distribution across multiple LD50s, the median of the lowest quartile was computed using only discrete LD50 values (omitting limit test data and range and confidence interval data). A detailed summary of the data compilation is available online on the NICEATM webpage dedicated to the collaborative modeling project (NTP 2020).
[…][…] For categorical designations, limit test and range/confidence interval LD50 data were integrated wherever possible. As such, the number of chemicals with end point values/calls varies across the modeling end points (Table 3) based on whether chemicals had representative LD50 values and/or other data. If a chemical had both, the representative value was used to determine categorical calls rather than limit test data. Some data were useable only for certain end points and categories depending on the thresholds. For example, ranges that spanned multiple hazard categories were considered only for the binary (very toxic/nontoxic) end points and omitted from rendering a determination for hazard category assignment.
[…]The final data set comprising 11,992 chemicals was split into training and evaluation sets […], respectively. This process was performed semirandomly by ordering chemicals based on the five end points (categorical and continuous LD50 values) and partitioning every fourth record into the evaluation set accordingly. This approach was taken to ensure an equivalent distribution of the LD50 values and the different hazard categories between the training and the evaluation sets without supervised sampling of the chemicals based on structures (Figure 1A). The sources of the chemical structures were also kept equivalent between the two sets, with chemical structures obtained from DSSTox, being the highest quality, representing over 75% of each set (Figure 1B).

Row | Structure (SMILES) | LD50 [mg/kg]
1 | CCCCN(CCN(CCCC)C(=O)N1CCOCC1)C(=O)N1CCOCC1 | 270
2 | FC(F)(Cl)C(Cl)Cl | 3290
3 | CCOC(=O)Cc1ccccc1 | 3300
4 | CN(C(=O)c1cc(C(F)(F)F)cc(C(F)(F)F)c1)c1nc(C(F)(F)F)c(Cl)s1 | 501
5 | COC(OC)c1ccccc1 | 1220
6 | COc1nc(C(F)(F)F)nc(=NC(O)=NS(=O)(=O)c2ccccc2C(F)(F)F)[nH]1 | 4700
7 | CNCC(O)c1cccc(NS(C)(=O)=O)c1 (centres undefined) | 13
8 | CN(C)CCCN1c2ccccc2CCc2cc(O)ccc21 | 2980
9 | COC(=O)CC(SP(=S)(OC)OC)C(=O)OC (centres undefined) | 1020
10 | CCCCCCCCCCCCCCCCOCCOCCOCCOCCOCCOCCOCCOCCOCCOCCOCCOCCOCCOCCOCCOCCOCCOCCOCCOCCO | 2500
11 | COc1ccc2c(=O)c(C)c(C)oc2c1CN(C)C | 7.8
12 | CCCCCCCCOC(CBr)c1ccc(C(C)(C)C)cc1 (centres undefined) | 250
13 | COc1ccc(CCNCC(O)COc2ccc(OCC(C)=O)c3c2CCC(=O)N3)cc1OC (centres undefined) | 1260
14 | CCOP(=S)(OCC)Oc1ccc(N=C=S)cc1 | 251
15 | CCOP(=O)(O)O | 1600
16 | C=C(C)C(=O)OCCSCC | 7400
17 | COc1ccc2c(c1)OC(C)(C)C(c1ccccc1)=C2c1ccc(OCCN)cc1 | 1500
18 | COC1CCC(OC2C(C)C(O)(C(C)C(=O)O)OC(CC3CC(OC)C(C)C4(O3)OC(C)(C3CCC(C5CCC(C6OC(C)(O)C(C)C(OC)C6C)O5)O3)C(OC)C4C)C2(C)OC)OC1C (centres undefined) | 7
19 | CN(C)S(=O)(=O)N(SC(F)(Cl)Cl)c1ccccc1 | 500
20 | OC(CCl)CNc1ccccc1NCC(O)CCl (centres undefined) | 900
21 | CCCCC(CC)OCCO (centres undefined) | 2280
22 | Oc1cc(Cl)ccc1Oc1ccc(Cl)cc1Cl | 3700
23 | COc1ccc(CC(=S)N(C)C)cc1 | 22
24 | CC(=O)C(N=Nc1ccc(-c2ccc(N=NC(C(C)=O)C(=O)Nc3ccc(C)cc3)c(Cl)c2)cc1Cl)C(=O)Nc1ccc(C)cc1 (centres undefined) | 2230
25 | CN(C)C(=O)NC1CCCCCCC1 | 1500

Row | Structure (SMILES) | LD50 [mg/kg]
26 | CCOP(=O)(OCC)SCCSCC | 1.5
27 | CC(=O)Oc1ccc(Br)cc1C(=O)O | 1130
28 | FC(F)(F)c1nc2c(Cl)cc(Br)cc2[nH]1 | 6.4
29 | CCCCCCCCCCCCN | 1020
30 | CCCN(CCC)C(=O)C(CCC(=O)OCCCOC(=O)Cc1c(C)n(C(=O)c2ccc(Cl)cc2)c2ccc(OC)cc12)NC(=O)c1ccccc1 (centres undefined) | 605
31 | COP(=O)(OC)O/C(=C\Cl)c1ccc(Cl)cc1Cl | 97.5
32 | N#CCC[P+](CCC#N)(CCC#N)CC[P+](CCC#N)(CCC#N)CCC#N | 10000
33 | C1C2OC2C2C1C1CC2C2OC12 (centres undefined) | 210
34 | Fc1c(Cl)c(Cl)c(Cl)c2[nH]c(C(F)(F)F)nc12 | 0.847
35 | CC(O)CN(C)c1ccc(NN)nn1 (centres undefined) | 1230
36 | OC(c1ccccc1)(c1ccccc1)C1CN2CCC1CC2 (centres undefined) | 440
37 | O=C(O)Cc1ccccc1Nc1c(Cl)cc(O)cc1Cl | 190
38 | CNC(=O)ON=C1SCSC1C (centres undefined) | 0.88
39 | CO[C@H]1CC[C@H](O[C@@]2(C)[C@H](C[C@@H]3C[C@@H](OC)[C@@H](C)[C@]4(O3)O[C@](C)(C3CC[C@@H]([C@H]5CC[C@H](C6O[C@](C)(O)[C@H](C)C[C@@H]6C)O5)O3)[C@H](OC)[C@H]4C)O[C@](O)([C@@H](C)C(=O)O)[C@H](C)[C@@H]2OC)O[C@@H]1C (some centres undefined) | 10
40 | N#Cc1ccc(Cl)c([N+](=O)[O-])c1 | 2050
41 | Cc1cc(=O)n(CSP(=S)(OC(C)C)OC(C)C)nc1Cl | 110
42 | CCCCCCCCCCOC(=O)c1ccccc1C(=O)OCCCCCCCC | 45000
43 | COc1ccc([N+](=O)[O-])cc1Cl | 1180
44 | CNC(=O)Oc1ccc(CCC#N)cc1 | 620
45 | O=C(O)c1cccc(Cl)c1Cl | 300
46 | CN(C)/N=N/c1ccccc1C(=N)O | 56
47 | CC(C)(C)NC[C@H](O)COc1cccc2c1CCCC2=O | 700
48 | CN=C(O)O/N=C(/C)C(C)(C)[N+](=O)[O-] | 13
49 | N#CCNCC#N | 710
